Test results taken from paper PMC3161979, “MrkH, a Novel c-di-GMP-Dependent Transcriptional Activator, Controls Klebsiella pneumoniae Biofilm Formation by Regulating Type 3 Fimbriae Expression” (PLoS Pathogens, 2011).

Target: T1, MrkH (MrkH-8×His) (Klebsiella pneumoniae, UniProt G3FT00)
T1 construct: full length, 234 aa, C-terminal 8×His tag, expressed from pET11a in E. coli BL21(DE3), about 28 kDa
Assay: EMSA with […]-labelled mrkA promoter fragment
Format: biochemical
Details: 200 µM c-di-GMP; pH 7.4; 30°C; 0-500 nM protein; allosteric activator of DNA binding; indirect read-out, no direct c-di-GMP binding measured

T1 sequence (G3FT00 entry or part of it): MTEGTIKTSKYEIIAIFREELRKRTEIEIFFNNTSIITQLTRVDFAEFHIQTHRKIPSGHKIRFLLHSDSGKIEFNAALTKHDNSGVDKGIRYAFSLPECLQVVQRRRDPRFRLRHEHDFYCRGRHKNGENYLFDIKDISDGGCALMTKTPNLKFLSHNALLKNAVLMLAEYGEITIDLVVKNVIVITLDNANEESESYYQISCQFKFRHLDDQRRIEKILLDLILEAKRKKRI

Nc1nc2c(ncn2[C@@H]2O[C@@H]3COP(=O)(O)O[C@H]4[C@@H](O)[C@H](n5cnc6c(=O)[nH]c(N)nc65)O[C@@H]4COP(=O)(O)O[C@H]3[C@H]2O)c(=O)[nH]1 [c-di-GMP]
EMSA with 32P-labelled mrkA promoter fragment: In the presence of c-di-GMP, the majority of the DNA was shifted
